Legend:
[1] = test system: patients with OA of the knee; experiment: Example 2 randomized double-blind active-controlled study: WOMAC index; format: in vivo, human
Procedure: (§1) This was a 16-week, randomized, double-blind, active-controlled, parallel-group study. The study received Ethics Committee approval, was performed in accordance with the ICH Harmonized Guidelines for Good clinical Practice (GPC) and the Declaration of Helsinki. All patients provided written, informed consent before the start of the study.
(§2) 117 patients with OA of the knee (according to the American College of Rheumatology criteria) were included in the study. Patients were enrolled by public advertising and were studied at the San Jose Hospital in Queretaro, México. Entry criteria included: willingness to participate in the study, male and female patients aged at least 40 years of age with symptomatic evidence of OA in the knee for at least 1 year, radiographic evidence of Kellgren and Lawrence grade II to IV OA of the knee, and no intra-articular injection of corticosteroids within the last 3 months. Patients were excluded if they had: any history of adverse reaction to the study drugs, current pregnancy status, uncontrolled hypertension, active infection, undergone surgery/arthroscopy within three months, diagnosis of radiographic OA of Kellgren and Lawrence grade I.
(§3) Participants were assessed in-person during 6 visits conducted at monthly intervals. After giving written informed consent (visit #1), patients were screened and selected according to the predetermined criteria. Visit #2 was the baseline assessment. During this visit selected patients were assigned a unique patient identification number and randomized to receive 1 intra-articular monthly injection (10 mL) of Kondrium™, Kondrium™-F or methylprednisolone (80 mg) 1 month apart during the next 3 months (visits 3, 4 and 5). Visit #3, #4 and #5 served as a midpoint assessment and visit #6 was the final assessment corresponding to the end of the intervention period of the study. Kondrium™ is an aqueous formulation that contains 6.75% (w/v) sodium bicarbonate and 0.75% (w/v) calcium gluconate. Kondrium™-F is an aqueous formulation that contains 6.75% (w/v) sodium bicarbonate and 1.5% (w/v) calcium gluconate.
(§4) The primary efficacy variable was the change from the baseline to final assessment in the Western Ontario and McMastern University OA index (WOMAC subscale score for pain), and Lequesne's functional index.
(§5) Data analysis was performed using SPSS for Windows version 10.0. Baseline demographic variables and compliance were analyzed by means of the χ^2 test. A univariate analysis of variance (ANOVA) was used to determine whether the three treatment groups differed in mean values of change from a baseline in WOMAC and Lequesne's functional index. Treatment effect is shown as the main effect controlled by the baseline values. Pairwise comparisons between treatments were done with the LSD test. All statistical tests were performed at the 0.05 level of significance.

[2] = test system: patients with OA of the knee; experiment: Example 2 randomized double-blind active-controlled study: Lequesne's functional index; format: in vivo, human
Procedure: as §1, §2, §3, §4, §5

[3] = after 4 months of treatment, monthly intra-articular injection

C[C@H]1C[C@@H]2[C@H]([C@@H](O)C[C@@]3(C)[C@H]2CC[C@]3(O)C(=O)CO)[C@@]2(C)C=CC(=O)C=C12 [Methylprednisolone, methylprednisolone]
WOMAC Pain, change, mean [1, 3]: −2.76 | WOMAC Pain, final, mean [1, 3]: 2.57 | WOMAC Physical functioning, change, mean [1, 3]: −7.34 | WOMAC Physical functioning, final, mean [1, 3]: 8.19 | WOMAC Stiffness, change, mean [1, 3]: −2.42 | WOMAC Stiffness, final, mean [1, 3]: 2.77 | WOMAC Pain, baseline, mean ([1]; before treatment): 4.72 | WOMAC Physical functioning, baseline, mean ([1]; before treatment): 14.47 | WOMAC Stiffness, baseline, mean ([1]; before treatment): 4.79 | Lequesne functional index Maximum Walking Distance, change, mean [2, 3]: −0.75 | Lequesne functional index Maximum Walking Distance, final, mean [2, 3]: 2.90 | Lequesne functional index Normal activities, change, mean [2, 3]: −2.80 | Lequesne functional index Normal activities, final, mean [2, 3]: 4.62 | Lequesne functional index Pain, change, mean [2, 3]: −1.96 | Lequesne functional index Pain, final, mean [2, 3]: 2.86 | Lequesne functional index Maximum Walking Distance, baseline, mean ([2]; before treatment): 3.24 | Lequesne functional index Normal activities, baseline, mean ([2]; before treatment): 6.93 | Lequesne functional index Pain, baseline, mean ([2]; before treatment): 4.34 | mean change in the Lequesne's functional index ([2]; end of study vs baseline): −5.2
